Measurements published in patent publication US9518065B2, “IRAK inhibitors and uses thereof” (NIMBUS IRIS, INC., priority 2013, dated 2016).
Where two headings read alike, the source gives them in different places.

Experiments:
[1] = molecular target: T1, IRAK4 (Homo sapiens, UniProt Q9NWZ3); test: IRAK-4 activity inhibition assay (Caliper); assay type: biochemical; conditions: 3.5 nM IRAK4, 37 μM ATP, 1.5 μM Peptide 8
T1 construct: purchased CARNA Bioscience 09-145
T1 sequence (Q9NWZ3 1-460): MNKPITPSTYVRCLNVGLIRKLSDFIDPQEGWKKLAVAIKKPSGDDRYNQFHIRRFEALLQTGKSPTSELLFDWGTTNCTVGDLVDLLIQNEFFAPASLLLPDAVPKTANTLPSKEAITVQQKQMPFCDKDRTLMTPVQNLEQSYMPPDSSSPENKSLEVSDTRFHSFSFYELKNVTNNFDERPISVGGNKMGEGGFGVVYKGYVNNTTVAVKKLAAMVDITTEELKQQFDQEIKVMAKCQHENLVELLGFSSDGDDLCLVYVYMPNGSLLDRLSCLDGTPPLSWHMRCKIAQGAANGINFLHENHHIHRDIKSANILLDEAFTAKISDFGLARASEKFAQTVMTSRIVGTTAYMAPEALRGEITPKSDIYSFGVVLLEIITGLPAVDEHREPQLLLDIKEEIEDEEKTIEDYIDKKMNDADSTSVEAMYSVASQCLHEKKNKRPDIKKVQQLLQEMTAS
Procedure: A 1× kinase base buffer was prepared from 50 mM HEPES, pH 7.5 and 0.0015% Brij-35. A stop buffer was prepared from 100 mM HEPES, pH 7.5, 0.015% Brij-35, 0.2% Coating Reagent #3, and 50 mM EDTA.
Test compound was diluted to 50× of the final desired highest inhibitor concentration in reaction by 100% DMSO. 100 ul of this compound dilution was transferred to a well in a 96-well plate. For example, if desired highest inhibitor concentration in IC50 determination is 100 uM, then prepare 5000 uM of compound DMSO solution in this step.
Test compound was serially diluted by transferring 30 μl to 60 μl of 100% DMSO in the next well and so forth for a total of 10 concentrations. 100 μl of 100% DMSO was added to two empty wells for no compound control and no enzyme control in the same 96-well plate.
A new 96-well plate was marked as intermediate plate. 5 μl of compound serial dilution was transferred from source plate to the corresponding wells of the intermediate plate. 45 μl of 1× kinase base buffer (KB buffer) was added to each well of the intermediate plate. The intermediate plate was placed for 10 min on a shaker.
5 μl of each well was transferred from the 96-well intermediate plate to a 384-well plate in duplicates. For example, A1 of the 96-well plate is transferred to A1 and A2 of the 384-well plate. A2 of the 96-well plate is transferred to A3 and A4 of the 384-well plate, and so on.
IRAK4 and DTT in 1× kinase base buffer was added. The 2.5× enzyme mix contained 8.8 nM IRAK4 and 5 mM DTT.
Peptide 8, ATP, MgCl2 and MnCl2 were added in the 1× kinase base buffer. The 2.5× peptide mix contained 3.75 μM peptide 8, 92.5 μM ATP, 12.5 mM MgCl2 and 2.5 mM MnCl2.
Assay plate already contained 5 μl of compound in 10% DMSO. Added 10 μl of 2.5× enzyme solution to each well of the 384-well assay plate, except no enzyme control wells. The final concentration of IRAK4 in reaction was 3.5 nM. Added 10 μl of 1× kinase base buffer to no enzyme control wells in the assay plate. Incubated at room temperature for 10 min.
Added 10 μl of 2.5× peptide solution to each well of the 384-well assay plate. The final concentration of Peptide 8 and ATP was 1.5 μM and 37 μM, respectively. Incubated at 28° C. for 40 minutes. Added 25 μl of stop buffer to stop reaction. Collected data on Caliper.
Copied conversion % data from Caliper program. Converted conversion % values to percent inhibition values. Percent inhibition=(max-conversion %)/(max-min)*100, where “max” means the conversion % of DMSO control and “min” means the conversion % of no enzyme control.
The compound numbers correspond to the compound numbers in Table 1. Compounds having an activity designated as “A” provided an IC50≦1 μM; compounds having an activity designated as “B” provided an IC50 of 1-5 μM; compounds having an activity designated as “C” provided an IC50 of ≧5 μM. “NA” stands for “not assayed.”

[2] = test system: TNFα and IL8 production in THP-1 cells; test: LPS induced cytokine (TNFα and IL8) production assay in THP-1 cells; assay type: cell-based; conditions: Homo sapiens, 300 ng/mL LPS
Procedure: Provided compounds were also assayed in an LPS (Lipopolysacharide) or R848 (TLR-7 agonist) induced cytokine (TNFα and IL8) production assay in THP-1 cells, human white blood cells (hWBC), and whole blood. The exemplary protocol for this assay in THP-1 cells was as follows below.
THP-1 cells from ATCC (TIB-202) were cultured in RPMI Medium 1640 (Invitrogen, Cat No. A10491-01), 10% fetal bovine serum (Invitrogen, Cat No. 10099141, Lot No. 8172882) containing 100 U/mL Penicillin, 100 μg/mL streptomycin (Invitrogen, Cat No. 15140-122), and 50 uM 2-Mercaptoethanol (Invitrogen, Cat No. 21985023). LPS-EK ultra pure (Invivogen, Cat No. tlrl-peklps) was used to induce IL8 and TNFα production, that was detected in the cell culture supernatant by IL8 HTRF kit (Cisbio, Cat No. 62IL8PEB) and TNFα HTRF kit (Cisbio, Cat No. 62TNFPEB), as per manufacturer instructions. Cells were cultured in 96 well assay plates at 100,000 cells per well, and compounds diluted in final 0.3% DMSO were pre-incubated with cells for 1 hour prior to stimulation with 300 ng/mL LPS. Cytokine production in cell supernatant was measured at 5 hours for TNFα and IL8 production, and for 16 hours for IL8 production and assessment of cell viability.
The compound numbers correspond to the compound numbers in Table 1. […] “NA” stands for “not assayed.”

[3] = 5 hours, read-out: TNFα production IC50
[4] = 16 hours, read-out: IL8 (16 h) production IC50

| Structure (SMILES) | IC50 [1] | IC50 [2, 3] | IC50 [2, 4] |
| --- | --- | --- | --- |
| CCc1nc2c(N[C@H]3CC[C@H](N4CCOCC4)CC3)nc(Nc3cnn(CC4CCOCC4)c3)nc2s1 [Compound I-18, 2-ethyl-N7-((1r,4r)-4-morpholinocyclohexyl)-N5-(1-((tetrahydro-2H-pyran-4-yl)methyl)-1H-pyrazol-4-yl)thiazolo[5,4-d]pyrimidine-5,7-diamine] | ≤ 1000 nM | ≤ 250 nM | ≤ 250 nM |
| CCc1nc2c(N[C@H]3CC[C@H](N4CCC5(CC4)COC5)CC3)nc(Nc3cnn(C)c3)nc2s1 [Compound I-13, N7-((1r,4r)-4-(2-oxa-7-azaspiro[3.5]nonan-7-yl)cyclohexyl)-2-ethyl-N5-(1-methyl-1H-pyrazol-4-yl)thiazolo[5,4-d]pyrimidine-5,7-diamine] | ≤ 1000 nM | ≤ 250 nM | ≤ 250 nM |
| CCc1nc2c(N[C@H]3CC[C@H](N4CCC5(CC4)CC5)CC3)nc(Nc3cnn(C)c3)nc2s1 [Compound I-21, N7((1r,4r)-4-(6-azaspiro[2.5]octan-6-yl)cyclohexyl)-2-ethyl-N5-(1-methyl-1H-pyrazol-4-yl)thiazolo[5,4-d]pyrimidine-5,7-diamine] | ≤ 1000 nM | ≤ 250 nM | ≤ 250 nM |
| CCc1nc2c(N[C@H]3CC[C@H](N4CCC5(CC4)COC5)CC3)nc(Nc3cnn(C4CCOCC4)c3)nc2s1 [Compound I-14, N7-((1r,4r)-4-(2-oxa-7-azaspiro[3.5]nonan-7-yl)cyclohexyl)-2-ethyl-N5-(1-(tetrahydro-2H-pyran-4-yl)-1H-pyrazol-4-yl)thiazolo[5,4-d]pyrimidine-5,7-diamine] | ≤ 1000 nM | ≤ 250 nM | ≤ 250 nM |
| CCc1nc2c(N[C@H]3CC[C@@H](N4CCC(F)(F)CC4)CC3)nc(Nc3cnn(C)c3)nc2s1 [Compound I-12, N7-((1s,4s)-4-(4,4-difluoropiperidin-1-yl)cyclohexyl)-2-ethyl-N5-(1-methyl-4H-pyrazol-4-yl)thiazolo[5,4-d]pyrimidine-5,7-diamine] | ≤ 1000 nM | 250 to 500 nM | 250 to 500 nM |
| CCc1nc2c(N[C@H]3CC[C@H](N4CCOCC4)CC3)nc(Nc3cnn(CC)c3)nc2s1 [Compound I-22, 2-ethyl-N5-(1-ethyl-1H-pyrazol-4-yl)-N7-((1r,4r)-4-morpholino-cyclohexyl)thiazolo[5,4-d]pyrimidine-5,7-diamine] | ≤ 1000 nM | 250 to 500 nM | ≤ 250 nM |
| CCc1nc2c(N[C@H]3CC[C@H](N4CCC(O)CC4)CC3)nc(Nc3cnn(C4CCOCC4)c3)nc2s1 [Compound I-16] | ≤ 1000 nM | ≤ 250 nM |  |
| CCc1nc2c(N[C@H]3CC[C@H](N4CCC(O)CC4)CC3)nc(Nc3cnn(C)c3)nc2s1 [Compound I-17, 1-((1r,4r)-4-((2-ethyl-5-((1-methyl-1H-pyrazol-4-yl)amino)-thiazolo[5,4-d]pyrimidin-7-yl)amino)cyclohexyl)piperidin-4-ol] | ≤ 1000 nM | ≤ 250 nM |  |

Other lines, results leading:

| IC50 [1] | IC50 [2, 3] | IC50 [2, 4] | Structure (SMILES) |
| --- | --- | --- | --- |
| ≤ 1000 nM | ≤ 250 nM | ≤ 250 nM | CCc1nc2c(O[C@H]3CC[C@H](N4CCOCC4)CC3)nc(Nc3cnn(C4CCOCC4)c3)nc2s1 [Compound I-26, 2-ethyl-7-(((1r,4r)-4-morpholinocyclohexyl)oxy)-N-(1-(tetrahydro-2H-pyran-4-yl)-1H-pyrazol-4-yl)thiazolo[5,4-d]pyrimidin-5-amine] |
| ≤ 1000 nM | 250 to 500 nM | 250 to 500 nM | Cc1nc2c(N[C@H]3CC[C@H](N4CCC5(CC4)CC5)CC3)nc(Nc3cnn(C)c3)nc2s1 [Compound I-39, N7-((1r,4r)-4-(6-azaspiro[2.5]octan-6-yl)cyclohexyl)-2-methyl-N5-(1-methyl-1H-pyrazol-4-yl)thiazolo[5,4-d]pyrimidine-5,7-diamine] |
| ≤ 1000 nM | ≤ 250 nM | ≤ 250 nM | CCc1nc2c(N[C@H]3CC[C@H](N4CCOCC4)CC3)nc(Nc3cnn(CCOC)c3)nc2s1 [Compound I-34, 2-ethyl-N5-(1-(2-methoxyethyl)-1H-pyrazol-4-yl)-N7-((1r,4r)-4-morpholinocyclohexyl)thiazolo[5,4-d]pyrimidine-5,7-diamine] |
| ≤ 1000 nM | ≥ 500 nM |  | Cc1nc2c(N[C@H]3CC[C@H](N4CCC(O)CC4)CC3)nc(Nc3cnn(C)c3)nc2s1 [Compound I-30, 1-((1r,4r)-4-((2-methyl-5-((1-methyl-1H-pyrazol-4-yl)amino)thiazolo[5,4-d]pyrimidin-7-yl)amino)cyclohexyl)piperidin-4-ol] |
| ≤ 1000 nM | ≤ 250 nM | 250 to 500 nM | Cc1nc2c(N[C@H]3CC[C@H](N4CCOCC4)CC3)nc(Nc3cnn(CCS(C)(=O)=O)c3)nc2s1 [Compound I-40, 2-methyl-N5-(1-(2-(methylsulfonyl)ethyl)-1H-pyrazol-4-yl)-N7-((1r,4r)-4-morpholinocyclohexyl)thiazolo[5,4-d]pyrimidine-5,7-diamine] |
| ≤ 1000 nM | 250 to 500 nM | 250 to 500 nM | Cc1nc2c(N[C@H]3CC[C@H](N4CCC5(CC4)COC5)CC3)nc(Nc3cnn(C)c3)nc2s1 [Compound I-42, N7-((1r,4r)-4-(2-oxa-7-azaspiro[3.5]nonan-7-yl)cyclohexyl)-2-methyl-N5-(1-methyl-1H-pyrazol-4-yl)thiazolo[5,4-d]pyrimidine-5,7-diamine] |
| ≤ 1000 nM | ≤ 250 nM | ≤ 250 nM | Cc1nc2c(N[C@H]3CC[C@H](N4CCOCC4)CC3)nc(Nc3cnn(C4CCOCC4)c3)nc2s1 [Compound I-25, 2-methyl-N7-((1r,4r)-4-morpholinocyclohexyl)-N5-(1-(tetrahydro-2H-pyran-4-yl)-1H-pyrazol-4-yl)thiazolo[5,4-d]pyrimidine-5,7-diamine] |
| ≤ 1000 nM | ≥ 500 nM | 250 to 500 nM | Cc1nc2c(N[C@H]3CC[C@H](N4CCOCC4)CC3)nc(Nc3cnn(CCCS(C)(=O)=O)c3)nc2s1 [Compound I-38, 2-methyl-N5-(1-(3-(methylsulfonyl)propyl)-1H-pyrazol-4-yl)-N7-((1r,4r)-4-morpholinocyclohexyl)thiazolo[5,4-d]pyrimidine-5,7-diamine] |
